Measured values published in paper PMC6406907, “A H2AX–CARP-1 Interaction Regulates Apoptosis Signaling Following DNA Damage” (Cancers, 2019).

Test system: CARP-1, phospho-JNK1/2, phospho-H2AX, PARP
Experiment: Western blot of CARP-1, phospho-JNK1/2, γH2AX, cleaved PARP in MDA-MB-468
Format: cell-based, human
Conditions: for expression of CARP-1, phospho-JNK1/2, phospho-H2AX / PARP cleavage: MDA-MB-468, WB; for PARP cleavage: robust cleaved PARP over 12-h treatment period; for CARP-1 levels and γH2AX: MDA-MB-468, WB / IF
Experimental: Logarithmically growing cells were either untreated or treated with different agents for various time periods. The cells were lysed to prepare protein extracts. IP was carried out by incubating approximately 1 mg of the protein lysate with appropriate antibodies. The immunoprecipitates were then analyzed by SDS-PAGE, followed by WB with respective, interacting protein. For Gst-pulldown, Gst-H2AX or various His-TAT-HA-tagged CARP-1 peptides were generated in Escherichia coli (E. coli) BL21 cells essentially as described by us previously. Briefly, the competent E. coli BL-21 (DE3) pLysS cells were transformed separately with various recombinant pGEX-4T-1 or pTAT-HA constructs. The transformed cells were then subjected to selection by combined presence of ampicillin and chloramphenicol; various isolates for each transformation were obtained and bacterial lysates were characterized for expression of fusion peptides. Cells from each isolate were grown in 4 mL of LB medium containing ampicillin only until the optical density (OD)600 reached 0.4–0.8. Expression of fusion peptides was induced over 2–4 h incubation periods after Isopropyl β-D-1-thiogalactopyranoside (IPTG) addition. The cells were harvested, and pellets were stored at −80 °C overnight. The cell pellets were then lysed in 100–400 μL of bacterial protein extraction reagent (BPER) buffer (Thermo Scientific, Waltham, MA, USA, Cat# 78243) containing 2 μL/mL of 10 units/μL DNAse I (Boehringer Mannheim, Fremont, CA, USA, Cat # 776–785), and supernatant checked for expression of respective fusion peptides by WB. Following confirmation of expression, 5–20 μL of lysate expressing Gst fusion protein was first incubated with 20 μL of precleared glutathione sepharose in a final volume of 100 μL at 4 °C for 2 h with constant rotation. The sepharose beads were spun at 800× g for 2 min, and the pellet was washed 2–4 times with 100–200 μL of RIPA buffer (20 mM Tris-HCl (pH 7.5), 150 mM NaCl, 1 mM Na2EDTA, 1 mM EGTA, 1% NP-40, 1% sodium deoxycholate, 2.5 mM sodium pyrophosphate, 1 mM β-glycerophosphate, 1 mM Na3VO4, 1 µg/mL leupeptin) with 0.5 M NaCl. The beads were spun again as above, and mixed with 5–20 μL of E. coli lysate expressing His-TAT-HA CARP-1 peptides. The reactions were incubated further at 4 °C for 2 h with constant rotation. The peptide-bound sepharose beads were pelleted and washed with 100–200 μL of RIPA buffer with 0.1 M NaCl for 2–4 washes. In some cases, additional washes with 0.05 M NaCl buffer were carried out. After the final wash, the sepharose–protein complexes were spun, and then re-suspended in SDS loading buffer for electrophoresis on 12–15% SDS PAGE, followed by WB with appropriate antibodies.
Here, we utilized human TNBC MDA-MB-468 and human cervical cancer HeLa cells to conduct an MTT-based dose-response analysis using Adriamycin and CFM compounds. […] Since Adriamycin, CFM-4, and CFM-4.16 have molecular masses of 543.3, 404.9, and 440.3, respectively, we chose to use an equimolar dose of each compound in the MTT assays. […] Prior reports established that phosphorylation of H2AX at serine 139 (γ-H2AX) is involved in DNA damage repair and apoptotic signaling by ATM/ATR and JNKs, respectively. Next, the MDA-MB-468, HeLa, and the kidney cancer UOK 262 cells were treated with a 10 μM dose of the CFM-4.16 or Adriamycin for various time periods. The cell lysates from the control, untreated, and treated cells were analyzed by WB for expression of CARP-1, phospho-JNK1/2, phospho-H2AX, and poly ADP ribose polymerase (PARP) proteins. […] The H2AX activation is also indicative of DNA damage and involves pro-apoptotic JNKs. Our data in Figure 1C and Figure S1B,C (Supplementary Materials) also show activation of JNKs; however, a robust JNK activation is co-incident with H2AX phosphorylation following treatments with Adriamycin or CFM-4.16. […]

| SMILES | H2AX activation (10 μM Adriamycin, WB) | expression of CARP-1, phospho-JNK1/2, phospho-H2AX (10 μM) | PARP cleavage (10 μM) | time of earliest stimulation of PARP cleavage (10 μM, MDA-MB-468, "as early as") [h] | γH2AX (MDA-MB-468, Adriamycin alone, WB) | CARP-1 levels and γH2AX |
| --- | --- | --- | --- | --- | --- | --- |
| COc1cccc2c1C(=O)c1c(O)c3c(c(O)c1C2=O)C[C@@](O)(C(=O)CO)C[C@@H]3O[C@H]1C[C@H](N)[C@H](O)[C@H](C)O1 [Adriamycin, doxorubicin, reference compound] | robust at 12 h | stimulated expression of CARP-1, phospho-JNK1/2, and phospho-H2AX in a time-dependent manner | provoked PARP cleavage in a time-dependent manner | 3 | robust increase in γH2AX | robust increase in CARP-1 levels and γH2AX |
| O=C1N(Cc2ccccc2Cl)c2ccccc2C12NN=C(c1cccc(Cl)c1)S2 (stereo not drawn) [CFM-4.16] | – | stimulated expression of CARP-1, phospho-JNK1/2, and phospho-H2AX in a time-dependent manner | provoked PARP cleavage in a time-dependent manner | – | – | robust increase in CARP-1 levels and γH2AX |
